Activity calls are given as the source filed them.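 The calls were made as follows: active = Compounds that kill half the cells at a concentration of 5 micromolar or below, from the fitted or estimated CC50; inactive = CC50 above 5 micromolar.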

A word on the CC50: it is the concentration giving 50% cytotoxicity.

The subject of the experiment is Jurkat E6.1 viability, ATP luminescence, 48 h. Kind of experiment: viability loss in Jurkat T cells – cell-based, ATP luminescence, 48 h, 60K MLSMR, cytotoxicity control, dose response (AID 464).
For `Cc1ccc(OCCN2CCN(C(=O)CCC(=O)Nc3nnc(C(C)C)s3)CC2)cc1`, the CC50 is 5.08 µM (inactive).
The result for `COc1cc2c(O)c3c(c(-c4ccc5c(c4)OCO5)c2cc1OC)C(=O)OC3` reads 5.28 µM (inactive); that for `CCCN1C(=O)c2ccccc2NC1c1ccc(OC)cc1O` (configuration not stated), > 40 µM (inactive).
In the case of `COc1cccc(C2=CC(c3cc(OC)ccc3OC)n3nnnc3N2)c1` (configuration not stated), the CC50 was 11.7 µM (inactive).
The value for `CCOC(=O)CS(=O)(=O)c1nc(-c2ccc(F)cc2)cc(C(F)(F)F)n1` was 3.81 µM; that for `O=C(Nc1ccc2c(c1)CCC2)C1CCN(c2c3c(nc4ncnn24)CCC3)CC1` was 4.5 µM.
The value for `O=C(NCc1cccc(F)c1)c1noc2c1CCCC2` was 8.73 µM (inactive); that for `CC(=O)c1ccc(Oc2cc(C)nc(-n3nc(C)cc3C)n2)cc1` was 0.293 µM; that for `O=S1(=O)C=C(Sc2nc3cc(Cl)ccc3o2)c2ccccc21` was 9.93 µM (inactive).
The value for `CCCS(=O)(=O)c1nnnn1-c1cccc(OC)c1` was 1.73 µM.
As for `Cc1cc(NC(=O)COC(=O)c2ccc(S(=O)(=O)N3CCCc4ccccc43)cc2)no1`, the CC50 was 2.16 µM.
The result for `COc1ccccc1-c1cc(C(F)(F)F)nc(S(=O)(=O)CCCC(=O)N2CCOCC2)n1` reads 2.22 µM.
Consider `O=S(=O)(CCSc1ccccn1)c1nc2ccccc2s1`, for which the CC50 was 11.8 µM (inactive).
The result for `COc1ccc(C(=O)n2c(-c3ccco3)nc3ccccc32)cc1` reads 1.79 µM; that for `N#C/C(=C/c1ccc(N2CCCCCC2)o1)c1ccc(F)cc1`, > 13 µM (inactive).
The value for `COc1cccc(Cn2c(-c3nonc3N)nc3ccccc32)c1` was 1.06 µM.
The value for `CN1c2ccccc2C(C)(C)C12C=Cc1cc(O)ccc1O2` (configuration not stated) was 10.4 µM (inactive).
Regarding `CN(CCCC(=O)Nc1ccncc1)S(=O)(=O)c1ccc(Cl)cc1`, the CC50 was 5.53 µM (inactive).
On to `CCOC(=O)N1CCN(S(=O)(=O)c2ccc(C(=O)Nc3ccc(F)cc3F)cc2)CC1`, for which the CC50 was 1.09 µM.
The result for `CCOC(=O)C1(N(CC)CC)Sc2cc(C)ccc2NC1=O` (configuration not stated) reads 8.81 µM (inactive); that for `CSc1nc2nc3c(c(=O)n2[nH]1)CN(Cc1ccccc1)CC3`, > 40 µM (inactive).
In the case of `COc1ccc(NC(=O)c2cnc(C)cn2)c2ncccc12`, the CC50 was 5.63 µM (inactive).
The value for `Cc1cccc(N2CCN(c3cccc(C)c3)C2c2cccnc2)c1` was 15.8 µM (inactive); that for `CCOc1cc(C(=O)N2CCc3cc(OC)c(OC)cc3C2)ccc1OC(F)F` was 0.366 µM; that for `CN(C)S(=O)(=O)c1ccc(N2CCN(S(=O)(=O)c3ccc(F)cc3)CC2)c(Cl)c1` was 16.1 µM (inactive).
For the molecule `Cc1ccc(C)c(S(=O)(=O)Nc2ccc3scnc3c2)c1`, the cytotoxic concentration (CC50) was 3.08 µM.
The result for `CCOC(=O)C1=C(CNCc2ccc(C)cc2)NC(=O)NC1c1ccc(OC)cc1` (configuration not stated) reads > 40 µM (inactive).
As for `COc1ccc(NS(=O)(=O)c2cc(C)ccc2C)cc1`, the CC50 was 5.18 µM (inactive).
Consider `CCCn1c(NC(=O)c2cccc(S(=O)(=O)N3CCCC3)c2)nc2ccccc21`, for which the CC50 is > 40 µM (inactive).
The result for `COc1cc(C(=O)N2CCN(c3cc(Cl)ccc3Cl)CC2)cc(OC)c1OC` reads 0.134 µM; that for `CN(Cc1ccccc1)S(=O)(=O)c1ccc(C(=O)Nc2nnc(C3CC3)o2)cc1`, 26 µM (inactive); that for `CC1CC(C)CN(S(=O)(=O)c2ccc(C(=O)NCCCn3ccnc3)cc2)C1` (configuration not stated), 1.08 µM.
As for `COc1cc(NS(=O)(=O)c2ccc(C)cc2)c2ncccc2c1`, the CC50 was 10.1 µM (inactive).
The result for `CCCCCCn1c2c(c(=N)c3c1CCC3)CCC2` reads 0.482 µM; that for `CCOC(=O)c1nc(S(C)(=O)=O)ncc1Cl`, 4.66 µM.
The value for `c1ccc(/N=C2\N=C(Nc3ccccn3)c3ccccc32)nc1` was 1.12 µM; that for `Cc1ccc(C(=O)CCNc2ccc(F)c(Cl)c2)o1` was 6.26 µM (inactive).
The result for `CCCOc1ccccc1C1CC(=O)NC2=C1C(=O)CCC2` (configuration not stated) reads 1.52 µM.
Take `CSCc1nnc(NC(=O)c2ccc(S(=O)(=O)N(CC(C)C)CC(C)C)cc2)o1`: the CC50 was 21.1 µM (inactive).
The result for `Cc1noc(C)c1CSc1nc2[nH]ncc2c(=O)n1-c1ccccc1` reads 0.188 µM.
Consider `CCOC(=O)C(C)Sc1nc2c(cnn2-c2ccc(C)cc2)c(=O)[nH]1` (configuration not stated), for which the CC50 was > 40 µM (inactive).
The result for `CCn1c(=O)c(C(=O)Nc2nc3ccccc3[nH]2)c(O)c2ccccc21` reads 14.3 µM (inactive); that for `CCOC(=O)N1CCN(C(=O)C2CCCN(Cc3nc(-c4ccc(Cl)cc4)oc3C)C2)CC1` (configuration not stated), 4.64 µM; that for `Cc1nc(C)c2c(=O)cc(-c3ccccc3)[nH]c2n1`, 4.05 µM.
The value for `CCc1ccc(NS(=O)(=O)c2cc(OC)ccc2OC)cc1` was 16.6 µM (inactive); that for `O=C(NCCN1CCOCC1)NC1(C(F)(F)F)Oc2ccc(Cl)cc2O1` (configuration not stated) was 8.23 µM (inactive); that for `CCCCOc1ccc(C(=O)Nc2ccncc2)cc1` was 1.79 µM.
Consider `Cn1c(=O)c2c(nc(NCc3ccco3)n2C/C=C/c2ccccc2)n(C)c1=O`, for which the CC50 is 9.36 µM (inactive).
With `CCOC(=O)N1CCN(CC(=O)Nc2c(C(=O)OC)[nH]c3ccc(Cl)cc23)CC1`, the CC50 was > 40 µM (inactive).
The value for `O=C(Cc1cccs1)Nc1nc2c(s1)CCCC2` was > 40 µM (inactive); that for `COc1ccccc1-n1cnc(N)c1C(=O)c1ccccc1` was > 4.4 µM (inactive); that for `Cc1cccc(N2CCN(C(=O)c3ccc(CS(=O)(=O)c4ccccc4C)o3)CC2C)c1` (configuration not stated) was 0.785 µM.
The result for `CC(C)OCCCNc1ncnc2c1[nH]c1ccc(F)cc12` reads 2.02 µM.
The result for `O=C(Nc1nc(-c2nc3ccccc3s2)cs1)c1ccc(S(=O)(=O)N2CCOCC2)cc1` reads > 40 µM (inactive); that for `CCCCNc1cc(C)nc(NCc2ccccc2)n1`, 10.5 µM (inactive).
Take `CCOC(=O)c1[nH]c(C)c(C(=O)Nc2ccccc2F)c1C`: the CC50 was 1.42 µM.
The result for `O=C(Nc1nc2ccccc2[nH]1)c1ccccc1F` reads 4.79 µM.
Take `Oc1c(CN2CCCCC2)cc(COCc2ccccc2)c2cccnc12`: the CC50 is 3.31 µM.
The value for `CCCOc1ccccc1C1CC(=O)Nc2cc3c(cc21)OCCO3` (configuration not stated) was 0.745 µM.
The result for `CCNc1nc2c(c(=O)n(C)c(=O)n2C)n1Cc1ccc(Cl)cc1` reads 4.09 µM; that for `COc1cccc(C(=O)Nc2ncc3c(n2)CC(c2ccc(OC)cc2OC)CC3=O)c1` (configuration not stated), 8.19 µM (inactive); that for `COCCOC(=O)c1[nH]c2c(c1C)C(=O)CC(c1cc(OC)ccc1OC)C2` (configuration not stated), 4.2 µM.
The value for `COc1ccc(C(=O)C(CN2CCOCC2)c2ccccc2)cc1F` (configuration not stated) was 5.09 µM (inactive); that for `CCC/C(O)=C1\C(=O)CC(C)(C)CC1=Nc1ccc(OC)cc1OC` was 1.78 µM.
Turning to `COc1ccc2c(c1)sc1nc(-c3ccccc3)cn12`, the CC50 is 0.75 µM.
The result for `O=C(Nc1nc(-c2ccc3c(c2)OCCO3)cs1)c1ccc(S(=O)(=O)N2CCCCC2)cc1` reads 8.3 µM (inactive); that for `CC(C)C1N=C2c3ccccc3N=C(SCC(=O)c3ccc(O)c(O)c3)N2C1=O` (configuration not stated), 10.2 µM (inactive).

(Values after PubChem BioAssay AID464 (The Scripps Research Institute Molecular Screening Center, 2006).)
